Assay [1] concerns the target CaPma1p (Candida albicans, UniProt A0A1D8PJ01). The assay can be described thus: ATPase activity. The class given is biochemical.
Assay [2] addresses CaPma1p (Candida albicans, UniProt A0A1D8PJ01, A570P/A595V/I574L/N594R/S601N). The assay can be described thus: biochemical.
Assay [3] addresses CaPma1p (Candida albicans, UniProt A0A1D8PJ01, A570P/A595V/D557N/D559E/I574L/N594R/S564G/S601N/V186I/V531I). Nature of the assay: biochemical.
In assay [4] the target is CaPma1p-ScPma2p chimera expressed in Saccharomyces cerevisiae (C. albicans SC5314 (with residues of S. cerevisiae Pma2p)) (UniProt P28877). Nature of the assay: SEC. A general note: Size exclusion chromatography separates by hydrodynamic size, large species first.

Our source for the IC50 and stoichiometry N values is publication PMC4428687 (FEMS yeast research, 2013).

The term pIC50 denotes −log10 of the IC50, conventionally taken in molar units. A higher pIC50 goes with a low IC50. One may read the stoichiometry N as the number of molecules, sites or subunits per partner or assembly.

pIC50: −log10 of the molar value.

Turning to `[O]=[V]([OH])([OH])[OH]` [vanadate], the pIC50 at CaPma1p [1], at CaPma1p [2] and against CaPma1p [3] was 5.05 to 5.70 throughout.
With “CaPma1p-ScPma2p chimera expressed in Saccharomyces cerevisiae (from UniProt P28877 1-895) (enzyme)”, in assay [4], the stoichiometry N was more than 4.
